Experimental findings from patent US20160257930A1, “NEURONAL STEM CELL DIFFERENTIATION” (priority 2013, published 2016) are described below.

Common to all, as to format: cell-based, human
For one assay, the system named is hPSC-derived neurons. Put plainly: Fura-2 Ca2+ imaging. The note with it: 15 s; for intracellular Ca2+ response to glutamate receptor agonists: 100 micromolar agonist (NMDA plus 10 micromolar glycine). As to the method:
A. Exemplar time-course of Fura 2 fluorescence recording of intracellular Ca^2+ concentration in a neuron derived from hPSCs differentiated using the protocol. At each arrow, the cell was exposed sequentially for 15 s to the following solutions: ECS with high potassium chloride concentration (50 mM, isoosmotically replacing NaCl) to evoke a cell depolarization; […] ECS with low sodium chloride concentration (15 mM final, isoosmotically replaced by sodium isethionate) with 300 microM GABA, ECS containing 100 micromolar NMDA plus 10 micromolar glycine; […] The ratiometric Ca^2+ sensitive dye Fura-2-AM (Molecular Probes, Eugene, Oreg., USA) was used for Ca^2+ imaging experiments. This dye was purchased as a dry powder in 50 μg aliquots. Before use, these aliquots were dissolved in 50 μl DMSO (Sigma) by vortex. They were then incubated at 37° C. for 1 h to ensure the dye was fully dissolved. 1 μl of the 1 mg/ml Fura-2-AM stock was added to 250 μl of normal cell growth media and mixed. Cells on glass coverslips were then added to the well and incubated for 30 min at 37° C. and 5% CO2 in a humidified tissue culture incubator. Both stocks and media containing the dye were stored out of direct light to prevent photo-bleaching of the dye. This incubation allowed for Fura-2-AM to be taken up by the cells, cleaved and turned into the active dye Fura-2. Fura-2-loaded cells were placed in a specialised perfusion chamber, designed to allow direct access of the microscope oil-immersion lens with the bottom of the coverslip, mounted upon an Olympus IX71 equipped with a Cairn monochromator-based fluorescence system (Cairn Instruments, Faversham, UK) and were continuously superfused with ECS. Imaging was performed at room temperature. Fura-2 was alternately excited using fluorescence light emitted from the monochromator at 340 and 380 nm. Images at 510 nm were acquired at 0.33 or 0.2 Hz by a slow-scan CCD camera (Kinetic Imaging Ltd, Nottingham, UK). Solutions, agonists and antagonists were locally applied to the cells using the gravity-driven rapid solution changer. Raw data, in the form of emission intensities at 510 nm, during alternate excitation at 340 or 380 nm, were recorded and stored. Following background subtraction, emission ratios (340/380) were calculated off-line using Microsoft Office Excel (Microsoft, Redmond, Wash., US). Where indicated, data were normalised to the first 10 frames to allow further analysis and for comparisons.

The test system of a further assay is iPS-derived neurons. Put plainly: Whole-cell patch-clamp, current clamp: spontaneous action potentials and resting Vm. The text has this: Ag/AgCl electrodes for patch-clamp were produced by leaving pure silver wire in bleach overnight. An Ag/AgCl pellet (Clark Electromedical Instruments) connected to the patch-clamp headstage was used as the bath (reference) electrode. Thin-walled, filamented, borosilicate glass tubes (World-Precision Instruments, UK) were pulled using a two-stage pipette puller (PP-830, Narishige, Japan) to give patch pipettes with a measured tip resistance of 3-6 MΩ when filled with the internal pipette solution. These pipettes were used to establish whole-cell configuration of the patch clamp technique.
Whole-cell patch-clamp was performed at room temperature. Plated down cells grown on glass coverslips were transferred into a perfusion chamber mounted on the stage of an inverted microscope equipped with phase-contrast optics mounted inside a Faraday cage on an anti-vibration air table (Wentworth Laboratories Ltd., Oxford, UK). Continuous perfusion of the cells with ECS was maintained by a gravity-fed system using a 50 mL disposable syringe as a reservoir. Continuous perfusion was maintained at a rate of approximately 2-4 ml per minute. A gravity-fed rapid solution changer (RSC, RSC-200, Bio-Logic, France) was used to apply various solutions directly to the cells when required allowing for solution changes as fast as 20 ms. Waste solution was removed via vacuum suction through a flame-pulled glass tube connected to a waste Buchner flask with Tygon tubing.
Current-clamp was used to apply current protocols, generated using Axon Laboratory's pClamp 9 software to the patched cell. These were recorded on-line for further analysis using the pClamp software. Offline data review and analysis was performed using Axon Laboratory's Clampfit 9, Microsoft Office Excel and Prism6. Spontaneous action potentials (sAPs): Cells were held in current clamp with zero current injection for recording of resting membrane potentials (Vm) and observation of any spontaneous action potentials. Recordings were made using the ‘Gap free’ protocol immediately after whole-cell access to reduce the effect of the pipette ICS dialysing with the actual cytosolic solution and thus influencing the resting membrane potential. Recordings were made for approx. 60 s for a mean calculation of Vm and to allow for spontaneous action potentials to be recorded.
Data from the current step protocols were analysed in Clampfit and exported to Excel for further processing. The average Vm during a 60 s ‘Gap Free’ recording in current clamp was taken as the resting membrane potential. In cells displaying spontaneous activity, an estimation of the baseline was made from the trace.

The test system of another assay is neural progenitors. Put plainly: Cyquant cell proliferation assay. The note with it: increasing concentrations; assayed after 3, 6, 9 and 12 days of culture. As to the method: Cell proliferation in cultures treated with cell cycle and Notch pathway inhibitors were measured using the Cyquant™ Direct Cell Proliferation kit (Invitrogen). Briefly, 1×10^4 neural progenitors were plated per well in black, clear-bottomed 96 well plates (Nunclon) pre-treated with matrigel and cultured in ADF medium supplemented with B27 and small molecule inhibitors such as PD0332991 or DAPT (FIG. 2). Plates were processed according to the manufacturer's instructions and fluorescence Cyquant measurements were taken from triplicate cells on days 3, 6, 9 and 12 of culture using a FLUOstar Optima™ plate reader (BMG Labtech) using FITC (480 nm excitation/535 nm emission) filters in a bottom read fluorescence mode. Each measurement was calibrated by using blank suppression dye as a blank to remove background fluorescence.

The test system of assay [1] is neural progenitor cultures. Put plainly: Ki67 immunocytochemistry of neural progenitor cultures. Particulars: for Ki67 immunoreactivity: 2 μM PD0332991 or 10 μM DAPT, 3 and 7 days after plating. As to the method: Cells grown on coverslips as described above were fixed with 4% paraformaldehyde at room temperature for 15 minutes. Cells were permeabilised (0.1% Triton X-100 in phosphate buffered saline) for 20 minutes at room temperature, then blocked in blocking solution (2% normal goat serum, 3% bovine serum albumin, 0.1% Triton X-100 in phosphate buffered saline for one hour. Cells were incubated with primary antibodies (rabbit anti-FOXG1, mouse anti-Sox2 (Abcam), mouse anti-ZOI (Abcam), mouse anti-Nestin (Abcam) anti-KI67 (Sigma) and anti-βIII-Tubulin (Sigma) diluted in the same buffer overnight at 4° C. Coverslips were then washed in 0.1% Triton X-100 in phosphate buffered saline 3 times for 5 minutes each and incubated with secondary antibodies (Goat anti-rabbit alexa 594 or Goat anti-mouse 488 secondary antibodies (1:400, Sigma), as appropriate diluted in blocking buffer. Coverslips were washed as above, mounted onto slides using Vectashield with DAPI and imaged using a Olympus BX61 fluorescence microscope.

The mark [2] stands for this setting: 1.8 mM Ca2+ or 300 μM GABA vs control medium (0.6 mM Ca2+), weeks 1 and 2.

“Also recorded” adds a separate entry of the source. Where two headings read alike, the source gives them in different places.

`Cc1o[nH]c(=O)c1CC(N)C(=O)O` (stereo not drawn) [AMPA]: the “intracellular Ca2+ response to glutamate receptor agonists” value in the assay on hPSC-derived neurons was “all cells responded similarly”.
With `[Ca+2].[Cl-].[Cl-]` [Ca^2+, Calcium Chloride], in the assay on iPS-derived neurons, the “mean resting Vm” value is “significant hyperpolarisation of mean resting Vm; also recorded: hyperpolarized the Vm” and the “proportion of cells generating spontaneous activity” value was “enhancement in the proportion of cells generating spontaneous activity; also recorded: increase in spontaneous activity; also recorded: partially mimic the effects of ACM”.
`C[C@H](NC(=O)Cc1cc(F)cc(F)c1)C(=O)N[C@H](C(=O)OC(C)(C)C)c1ccccc1` [DAPT, N-[N-(3,5-Difluorophenacetyl)-L-alanyl]-S-phenylglycine t-butyl ester]: in the assay with neural progenitors, the “cell proliferation (relative Cyquant fluorescence, proportional to cell number)” value was “reduces cell proliferation; also recorded: inhibit neural progenitor proliferation”. Moreover, the Ki67 immunoreactivity result in assay [1] was “more progressive loss of Ki67 immunostaining”. Also, the “synchronisation of cell cycle exit and differentiation” value in assay [1] (DAPT treatment alone) is “insufficient to synchronise cell cycle exit and differentiation”.
Take `NCCCC(=O)O` [GABA, γ-aminobutyric acid]: the “rescue of Vm” value in the assay with iPS-derived neurons is “evoked a hyperpolarisation”. In the assay with iPS-derived neurons (setting [2]), the “mean resting Vm” value is on record as “as effective as the increased extracellular Ca^2+” and the “proportion of cells generating spontaneous activity” value is given as “as effective as the increased extracellular Ca^2+; also recorded: partially mimic the effects of ACM”. Besides, the “intracellular Ca2+ response to GABA in high chloride” value in the assay with hPSC-derived neurons (300 microM GABA in ECS) is “all neurons responded to GABA in high chloride”. Also, in the assay with hPSC-derived neurons (300 microM GABA, low chloride ECS), the “intracellular Ca2+ response to GABA in low chloride” value is given as “few cells responded to GABA in low chloride”.
With `CN[C@H](CC(=O)O)C(=O)O` [NDMA], in the assay with hPSC-derived neurons, the “intracellular Ca2+ response to glutamate receptor agonists” value is given as “all cells responded similarly”.
In the case of `CC(=O)c1c(C)c2cnc(Nc3ccc(N4CCNCC4)cn3)nc2n(C2CCCC2)c1=O` [PD0332991], in the assay on neural progenitors, the “cell proliferation (relative Cyquant fluorescence, proportional to cell number)” value is “concentration-dependent growth arrest; also recorded: inhibit neural progenitor proliferation”. The Ki67 immunoreactivity entry in assay [1] is listed as “complete loss of Ki67 immunopositive cells”.
In the case of SNX-482, the “ACM-evoked hyperpolarization (mean Vm)” value in the assay with iPS-derived neurons is “abolished”.
